Patent publication US20070179295A1, “Triazolopyrimidines” (priority 2003, published 2007)

Test: logP determination through HPLC (EEC directive 79/831 Annex V. A8, gradient method, acetonitrile/0.1% aqueous phosphoric acid)
Format: physicochemical
Conditions: HPLC

chromatographic logP	Structure (SMILES)
2.38	Cc1nc2nc(Cl)c(-c3ncccc3C(F)(F)F)c(N[C@@H](C)C(F)(F)F)n2n1 [Example 1, N-{5-chloro-2-methyl-6-[3-(trifluormethyl)-2-pyridinyl][1,2,4]triazolo-[1,5-a]pyrimidin-7-yl}-N-[(1S)-2,2,2-trifluor-1-methylethyl]amine]

Same assay, conditions: HPLC (gradient method); HPLC

chromatographic logP	Structure (SMILES)
2.13	Cc1nc2nc(Cl)c(-c3ncncc3Cl)c(NC(C)C(F)(F)F)n2n1 [Example 2, N-[5-chloro-6-(5-chloro-4-pyrimidinyl)-2-methyl[1,2,4]triazolo[1,5-a]pyrimidin-7-yl]-N-[(1S)-2,2,2-trifluor-1-methylethyl]amine]

Same assay, conditions: Table 1, compounds of formula (I); HPLC gradient method, acetonitrile/0.1% aqueous phosphoric acid

logP	Structure (SMILES)
2.64	C[C@H](Nc1c(-c2ncccc2[N+](=O)[O-])c(Cl)nc2nc(C3CC3)nn12)C(F)(F)F (single isomer, unassigned) [Example 16]
2.65 (Iso- mer)	C[C@H](Nc1c(-c2ncccc2[N+](=O)[O-])c(Cl)nc2nc(C3CC3)nn12)C(F)(F)F (single isomer, unassigned) [Example 17]
3.77	CC1CCN(c2c(-c3ncccc3C(F)(F)F)c(Cl)nc3nc(C4CC4)nn23)CC1 [Example 3]
3.20	FC1(F)CCN(c2c(-c3ncccc3C(F)(F)F)c(Cl)nc3nc(C4CC4)nn23)CC1 [Example 4]
3.75	CC(Nc1c(-c2ncccc2C(F)(F)F)c(Cl)nc2nc(C3CC3)nn12)C(C)(C)C (centres unmarked) [Example 5]
3.29	CC(C)C(C)Nc1c(-c2ncccc2C(F)(F)F)c(Cl)nc2nc(C3CC3)nn12 (centres unmarked) [Example 6]
3.01	CC(Nc1c(-c2ncccc2C(F)(F)F)c(Cl)nc2nc(C3CC3)nn12)C(F)(F)F (centres unmarked) [Example 7]
2.69	CC(Nc1c(-c2ncncc2Cl)c(Cl)nc2nc(C3CC3)nn12)C(F)(F)F (centres unmarked) [Example 8]
2.31	Cc1nc2nc(Cl)c(-c3ncncc3Cl)c(NC(C)C(C)C)n2n1 (centres unmarked) [Example 9]
3.09	Cc1nc2nc(Cl)c(-c3ncccc3C)c(N3CCC(C)CC3)n2n1 [Example 10]
2.94	CC(C)C(C)Nc1c(-c2ncncc2Cl)c(Cl)nc2nc(C3CC3)nn12 (centres unmarked) [Example 15]
3.09	CC(Nc1c(-c2ccccn2)c(Cl)nc2nc(C3CC3)nn12)C(C)(C)C (centres unmarked) [Example 18]
3.26	C[C@H](Nc1c(-c2ncc([N+](=O)[O-])cc2Cl)c(Cl)nc2nc(C3CC3)nn12)C(F)(F)F [Example 19]
3.21	CC(Nc1c(-c2ncccc2[N+](=O)[O-])c(Cl)nc2nc(C3CC3)nn12)C(C)(C)C (centres unmarked) [Example 20]
2.60	Cc1nc2nc(Cl)c(-c3ncccc3[N+](=O)[O-])c(NC(C)C(C)(C)C)n2n1 (centres unmarked) [Example 21]
2.60	CC(Nc1c(-c2ccccn2)c(Cl)nc2nc(C3CC3)nn12)C(F)(F)F (centres unmarked) [Example 22]
2.60	CC(Nc1c(-c2ccccn2)c(Cl)nc2nc(C3CC3)nn12)C(F)(F)F (centres unmarked) [Example 24]
2.82	CC(C)C(C)Nc1c(-c2ncccc2[N+](=O)[O-])c(Cl)nc2nc(C3CC3)nn12 (centres unmarked) [Example 25]
2.63	CC(C)C(C)Nc1c(-c2ccccn2)c(Cl)nc2nc(C3CC3)nn12 (centres unmarked) [Example 27]
3.86	CC(Nc1c(-c2nc([N+](=O)[O-])ccc2Cl)c(Cl)nc2nc(C3CC3)nn12)C(C)(C)C (centres unmarked) [Example 28]
2.90	CC(C)c1nc2nc(Cl)c(-c3ncncc3Cl)c(NC(C)C(F)(F)F)n2n1 (centres unmarked) [Example 29]
2.37	FC(F)(F)CNc1c(-c2ncncc2Cl)c(Cl)nc2nc(C3CC3)nn12 [Example 30]
2.56	CC(C)c1nc2nc(Cl)c(-c3ncncc3Cl)c(NCC(F)(F)F)n2n1 [Example 31]
3.12	CC(C)C(C)Nc1c(-c2ncncc2Cl)c(Cl)nc2nc(C3CC3)nn12 (centres unmarked) [Example 32]
3.50	CC(Nc1c(-c2ncncc2Cl)c(Cl)nc2nc(C3CC3)nn12)C(C)(C)C (centres unmarked) [Example 33]
3.67	CC(C)c1nc2nc(Cl)c(-c3ncncc3Cl)c(NC(C)C(C)(C)C)n2n1 (centres unmarked) [Example 34]

logP	Structure (SMILES)
3.39	CC(Nc1c(-c2ncncc2Cl)c(Cl)nc2nc(C3CC3)nn12)C(C)(C)C (centres unmarked) [Example 35]
3.17	CC(C)c1nc2nc(Cl)c(-c3ncncc3Cl)c(NC(C)C(C)C)n2n1 (centres unmarked) [Example 36]
2.95	CC(C)C(C)Nc1c(-c2ncncc2Cl)c(Cl)nc2nc(C3CC3)nn12 (centres unmarked) [Example 37]
2.82	CC(Nc1c(-c2ncncc2Cl)c(Cl)nc2nc(C3CC3)nn12)C(F)(F)F (centres unmarked) [Example 38]
2.48	FC(F)(F)CNc1c(-c2ccncc2Cl)c(Cl)nc2nc(C3CC3)nn12 [Example 40]
2.75	FC1(F)CCN(c2c(-c3ncncc3Cl)c(Cl)nc3nc(C4CC4)nn23)CC1 [Example 41]
2.82	CC(Nc1c(-c2ccncc2Cl)c(Cl)nc2nc(C3CC3)nn12)C(F)(F)F (centres unmarked) [Example 42]
3.09	CC(C)C(C)Nc1c(-c2ccncc2Cl)c(Cl)nc2nc(C3CC3)nn12 (centres unmarked) [Example 43]
2.78	CC(Nc1c(-c2ccncc2Cl)c(Cl)nc2nc(C3CC3)nn12)C(F)(F)F (centres unmarked) [Example 44]
4.32	CC(Nc1c(-c2cc(Cl)sc2Cl)c(Cl)nc2nc(C3CC3)nn12)C(F)(F)F (centres unmarked) [Example 46]
3.85	FC(F)(F)CNc1c(-c2cc(Cl)sc2Cl)c(Cl)nc2nc(C3CC3)nn12 [Example 47]
4.18	CC(C)Nc1c(-c2cc(Cl)sc2Cl)c(Cl)nc2nc(C3CC3)nn12 [Example 48]
5.08	CC(C)(C)CNc1c(-c2cc(Cl)sc2Cl)c(Cl)nc2nc(C3CC3)nn12 [Example 50]
3.81	CC(C)C(C)Nc1c(-c2ccsc2)c(Cl)nc2nc(C3CC3)nn12 (centres unmarked) [Example 52]
5.03	CC(C)C(C)Nc1c(-c2cc(Cl)sc2Cl)c(Cl)nc2nc(C3CC3)nn12 (centres unmarked) [Example 53]
4.23	CC1CCN(c2c(-c3ccsc3)c(Cl)nc3nc(C4CC4)nn23)CC1 [Example 55]
3.41	FC1(F)CCN(c2c(-c3ccsc3)c(Cl)nc3nc(C4CC4)nn23)CC1 [Example 56]
4.13	C=C(C)CN(CC)c1c(-c2ccsc2)c(Cl)nc2nc(C3CC3)nn12 [Example 57]
4.08	COCCN(C)c1c(-c2cc(Cl)sc2Cl)c(Cl)nc2nc(C3CC3)nn12 [Example 58]
3.29	CC(Nc1c(-c2ccsc2)c(Cl)nc2nc(C3CC3)nn12)C(F)(F)F (centres unmarked) [Example 59]
2.87	FC(F)(F)CNc1c(-c2ccsc2)c(Cl)nc2nc(C3CC3)nn12 [Example 60]
4.14	CC(C)CC(C)Nc1c(-c2ccsc2)c(Cl)nc2nc(C3CC3)nn12 (centres unmarked) [Example 61]
3.90	CC(C)CN(C)c1c(-c2ccsc2)c(Cl)nc2nc(C3CC3)nn12 [Example 63]
2.91	COCCN(C)c1c(-c2ccsc2)c(Cl)nc2nc(C3CC3)nn12 [Example 64]
3.18	Clc1nc2nc(C3CC3)nn2c(N2CCCC2)c1-c1ccsc1 [Example 65]
4.32	CCCN(CC1CC1)c1c(-c2ccsc2)c(Cl)nc2nc(C3CC3)nn12 [Example 66]

Structure (SMILES)	logP
Cc1nc2nc(Cl)c(-c3ncccc3C(F)(F)F)c(NC(C)C(C)(C)C)n2n1 (centres unmarked) [Example 11]	2.99
Cc1nc2nc(Cl)c(-c3ncccc3C(F)(F)F)c(NC(C)C(C)C)n2n1 (centres unmarked) [Example 12]	2.68
